In patent US20260102407A1, “TREATMENT METHODS” (priority 2020, published 2026):

Assays:
HMEC-1 [1] = assay: Endothelial repair following in vitro injury (scratch assay); assay type: cell-based, human; conditions: 0.6 μM, 5% FBS, 48 h
Procedure: Endothelial repair following in vitro injury. HMEC-1 (90-100% confluency) in 6-well plates were washed with PBS, and treated with 0.6 μM compound in MCDB131 containing 5% FBS. A sterile pointed toothpick was used to scrape the cell monolayer and the wells photographed under 4× objective at 0 h and 48 h. Cell regrowth in the denuded zone was determined using Image-Pro Plus (Cybernetics, USA).

BAEC = assay: Endothelial dual chamber migration assay toward VEGF-A165; assay type: cell-based, bovine; conditions: 1 μM; Transwell; 10% FBS and 50 ng/ml VEGF-A165 in lower chamber; 24 h
Procedure: Endothelial dual chamber migration assay. BAEC (6×10^3 cells/well) suspended in DMEM supplemented with 10% FBS were seeded into the upper chamber of 24-well plates fitted with Millicell cell culture inserts (cat. PI8P01250, Millipore). After 48 h, the medium was changed to DMEM supplemented with 0.01% FBS and the cells were incubated for 48 h. Compounds prepared in DMEM containing 0.01% FBS were added to the upper chamber. VEGF-A165 (50 ng/ml, Sigma, cat. V7259) in medium containing 10% FBS was added to the lower chamber. After 24 h, medium from the upper chamber was removed and a cotton swab was used to remove non-migrated cells and excess liquid. The insert was placed in 70% ethanol for 10 min to allow cell fixation and membranes were dried for 10-15 min. Filters were excised and placed on slides. Mounting medium (Fluoroshield™ with DAPI, Sigma, cat. 6057) was added and specimens were visualized using an EVOS FL microscope.

FosB/ΔFosB = assay: Western blot, serum-inducible FosB/ΔFosB expression in HMEC-1; assay type: cell-based, human; conditions: 30 μM compound, 10% FBS 1 h
Procedure: Western blot analysis with extracts of cells treated with serum. HMEC-1 (80-90% confluency) were arrested in serum-free MCDB131 medium without EGF or hydrocortisone for 20 h. Cells were treated with 30 μM compound in serum-free MCDB131 medium for 4 h, and the medium was changed to complete medium (with 10% FBS with EGF and hydrocortisone) with 30 μM compound for 1 h. Total protein was harvested as previously described in radioimmunoprecipitation (RIPA) lysis buffer with protease inhibitors (Li, Y., et al., Int J Cardiol 220, 185-191 (2016)). Proteins were resolved on 4-20% (w/v) sodium dodecyl sulfate (SDS)-polyacrylamide gradient gels (Bio-Rad Mini-PROTEAN TGX) and transferred to Immobilon-P PVDF membranes (Millipore, USA). Membranes were blocked with 5% skim milk and incubated with rabbit monoclonal FosB (cat. 2251, 1:1000, Cell Signaling, USA), rabbit monoclonal c-Fos antibodies (cat. 2250, 1:1000, Cell Signaling, USA) at 4° C. overnight or mouse monoclonal […] antibodies (cat. A5316, 1:30000, Sigma-Aldrich) at 22° C. for 15 min then incubated with a horseradish peroxidase conjugated secondary goat anti-rabbit (cat. P0448, 1:1000, DAKO Cytomation, Denmark) or goat anti-mouse (cat. P0447, 1:1000, DAKO Cytomation, Denmark) antibodies for 1 h. Chemiluminescence was detected using the Western Lightning Chemiluminescence system (PerkinElmer, USA) and ImageQuant™ LAS 4000 biomolecular imager (GE Healthcare Life Sciences, USA). Band intensity in images generated with the LAS 4000 on automatic exposure with sensitivity/resolution setting high was quantified using NIH ImageJ.

[2] = target: T1, Recombinant human His-MEK1 (Homo sapiens, UniProt Q02750); assay: SPR (Biacore T200) on immobilised His-MEK1; assay type: binding; conditions: 15° C.; 20 mM HEPES, 150 mM NaCl, 5% DMSO pH 7.4
T1 construct: purchased ThermoFisher Scientific PV3303
Procedure: SPR. SPR was performed on a Biacore T200. The active and reference flow cells of a Xantec NIHMC Ni sensor chip were conditioned with 0.5M NaEDTA followed by 5 mM NiCl2 in immobilisation buffer (20 mM HEPES, 150 mM NaCl, pH 7.4). Recombinant human His-MEK1 and His-MEK2 (500 nM, ThermoFisher Scientific, cat. PV3303 and PV3615, respectively) were injected for 15 min at 10 μl min^−1 over separate active flow cells. All immobilisation was carried out at 25° C. Following immobilisation, the temperature was lowered to 15° C., and the buffer changed to 20 mM HEPES, 150 mM NaCl, 5% DMSO pH 7.4. Samples of PD98059 (2.5-30 μM in running buffer) and BT2 (1.25-15 μM) were injected at a flow rate of 30 μl min^−1 over immobilised MEK1 and MEK2. Solvent correction was applied to the data using a DMSO standard curve. Data were analysed using the Biacore T200 Evaluation software. Prior to SPR, limits of compound solubility were determined using ^1H 1D NMR.

HMEC-1 [3] = assay: Endothelial proliferation assay using the xCELLigence system; assay type: cell-based, human; conditions: for serum-inducible endothelial proliferation (xCELLigence cell index): HMEC-1, 5% FBS, 0.2-1 μM, 79 h
Procedure: Endothelial proliferation assay using the xCELLigence system. HMEC-1 proliferation was evaluated using the xCELLigence System (Roche, Castle Hill). Briefly, HMEC-1 (5×10^3 cells/well) were seeded in a 96-well E-plate and inserted into the xCELLigence RTCA station (Roche). Cells were serum-deprived for 24 h in MCDB131 medium which contained 10 ng/ml EGF (Sigma-Aldrich) and 1 μg/ml hydrocortisone (Sigma-Aldrich) then treated with compound (0.2-1 μM) in medium containing 5% FBS, 10 ng/ml EGF (Sigma-Aldrich) and 1 μg/ml hydrocortisone (Sigma-Aldrich). Cell growth was monitored automatically every 15 min by xCELLigence system. Cell index (CI) represents a quantitative measure of each well cell growth. In this system, CI a unitless parameter that reports impedance of electron flow caused by adherent cells.

T1 sequence (Q02750 whole entry): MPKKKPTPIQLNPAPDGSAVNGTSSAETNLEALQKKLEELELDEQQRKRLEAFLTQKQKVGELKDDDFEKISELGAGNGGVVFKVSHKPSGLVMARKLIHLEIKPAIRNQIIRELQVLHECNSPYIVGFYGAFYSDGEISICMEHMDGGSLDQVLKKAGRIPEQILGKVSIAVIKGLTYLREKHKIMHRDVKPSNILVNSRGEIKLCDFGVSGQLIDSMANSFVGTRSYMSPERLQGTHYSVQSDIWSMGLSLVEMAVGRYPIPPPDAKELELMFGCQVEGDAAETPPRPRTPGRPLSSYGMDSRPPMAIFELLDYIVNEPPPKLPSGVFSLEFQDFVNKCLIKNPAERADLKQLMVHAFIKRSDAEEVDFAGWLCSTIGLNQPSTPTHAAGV

Compound	endothelial regrowth after mechanical injury in vitro (HMEC-1 [1])	migration of BAEC toward VEGF-A165 (BAEC)	serum-inducible FosB/ΔFosB expression (Western blot) (FosB/ΔFosB)	binding to His-MEK1 (SPR) [2]	serum-inducible endothelial proliferation (xCELLigence cell index) (HMEC-1 [3])	biological activity of formulation after autoclaving (HMEC-1 [3]; autoclaved (121° C., 15 psi, 20 min), 4 months storage at 22° C., 0.4, 0.8 μM)	biological efficacy of stored formulation (HMEC-1 [3]; heat-treated or not, storage up to 16 months)	inhibition of serum-inducible endothelial proliferation by stored formulation (HMEC-1 [3]; with or without 100° C. for 10 min, 6 weeks storage, 0.4, 0.8 μM)
CCOC(=O)Nc1ccc2c(c1)C(=O)N(CC)c1ccccc1O2 [BT2, (10-ethyl-11-oxo-10,11-dihydro-dibenzo[b,f][1,4]oxazepin-2-yl)-carbamic acid ethyl ester]	blocked this reparative response	inhibited migration	blocked the inducible expression of FosB and ΔFosB	bound to His-MEK1 significantly better than to His-MEK2	inhibited serum-inducible proliferation at concentrations in a dose-dependent manner	biologically active	no loss in biological efficacy	retained its ability to inhibit serum-inducible endothelial proliferation
CCN1C(=O)c2cc(N)ccc2Oc2ccccc21 [BT3, 2-amino-10-ethyldibenzo[b,f][1,4]oxazepin-11 (10H)-one]	no such effect	neither BT3, nor PD98059 (allosteric MEK inhibitor), imatinib (tyrosine kinase inhibitor) or tofacitinib (Janus kinase inhibitor) had an inhibitory effect	no inhibition	no appreciable binding	no inhibitory effect			
